Reference: paper PMC10350924, “Design, Synthesis, and Pharmacological Characterization of a Potent Soluble Epoxide Hydrolase Inhibitor for the Treatment of Acute Pancreatitis” (Journal of Medicinal Chemistry, 2023)

Experiments:
[1] = UGTs/CYPs dual-activity mouse liver microsomal stability; assay type: in vitro ADME; settings: for UGTs/CYPs dual-activity mouse liver microsomal stability: 5 μM, NADPH + UDP-GlcUA; for half-life at 5 µM / microsomal CLint at 1 h, 5 µM / half-life at 1 h, 5 µM: CD-1, mouse liver microsomes; for half-life at 5 µM / half-life at 1 h, 5 µM: 0.693/k, read-out: in vitro half-life; for microsomal CLint at 1 h, 5 µM: read-out: microsomal intrinsic clearance (CLint,micr)
Method: Initially, the chemical stability of the compounds was studied in phosphate buffer at pH 7.4. […] The same stability was evident in mouse plasma at two different time points (1 and 2 h, Table 2). In addition, all the compounds were subjected to an in vitro microsomal stability assay. In this assay, the metabolism of the parent compound over time (up to 60 min) was measured by liquid chromatography–mass spectrometry (LC–MS) in the presence of CYP450 and UGTs (uridine 5′-diphospho-glucuronosyltransferases) microsomal systems. The measurement of hepatic metabolism also allowed the determination of different pharmacokinetic parameters such as in vitro intrinsic clearance (CLint,micr) and to predict in vivo intrinsic clearance (CLint). The predicted in vivo CLint values were calculated using a microsomal protein value of 45 mg per gram of liver tissue and 87 g of liver per kg of body weight. The microsomal stability assay was validated using testosterone (low stability in the presence of NADPH), 2-naphthol (low stability using NADPH and UDPGA cofactors), and 3-(α-acetonylbenzyl)-4-hydroxy coumarin (high stability in dual-activity assay) as positive controls. To detect nonspecific protein binding or heat instability, the compounds were incubated without cofactors (negative control). Moreover, since microsomal concentrations > 2 mg mL^–1 are not recommended due to a potential negative impact of increased nonspecific binding on the rate of metabolism,[25] in our assay we used a low concentration of liver microsomes (0.5 mg mL^–1).
For microsomal stability assay, 25 μL of 5 mg mL^–1 mouse (CD-1) microsomes (Thermo Fisher Scientific, Bremen, Germany) were preincubated for 5 min at 37 °C with alamethicin and 2.5 μL of each sample (5 μM). The reaction started by adding a 50 μL mixture of 10 mM NADPH and UDP-GlcUA as cofactors (1:1 v/v) and was carried out at 37 °C for 15, 30, and 60 min in a Thermomixer comfort. The reaction was stopped by the addition of 200 μL of ice-cold methanol containing IS, and then samples were centrifuged at 14,680 rpm at 25 °C for 7 min (Eppendorf microcentrifuge 5424, Hamburg, Germany). The supernatants were collected and injected in LC-MS.
The control at 0 min was obtained by the addition of the organic solvent immediately after incubation with microsomes. Testosterone, 2-naphthol, and 3-(α-acetonylbenzyl)-4-hydroxy coumarin were used as the positive controls, while the negative control was prepared by incubation for up to 60 min without cofactors. The extent of metabolism is expressed as a percentage of the parent compound turnover. All experiments were performed in triplicate.

5-LOX = target: T1, 5-LOX (Homo sapiens, UniProt P09917); assay: Cell-free 5-LOX activity assay; assay type: biochemical; design: made in house; host or cells: Escherichia coli Bl21 (DE3); settings: human isolated 5-LOX
T1 sequence (P09917 1-674): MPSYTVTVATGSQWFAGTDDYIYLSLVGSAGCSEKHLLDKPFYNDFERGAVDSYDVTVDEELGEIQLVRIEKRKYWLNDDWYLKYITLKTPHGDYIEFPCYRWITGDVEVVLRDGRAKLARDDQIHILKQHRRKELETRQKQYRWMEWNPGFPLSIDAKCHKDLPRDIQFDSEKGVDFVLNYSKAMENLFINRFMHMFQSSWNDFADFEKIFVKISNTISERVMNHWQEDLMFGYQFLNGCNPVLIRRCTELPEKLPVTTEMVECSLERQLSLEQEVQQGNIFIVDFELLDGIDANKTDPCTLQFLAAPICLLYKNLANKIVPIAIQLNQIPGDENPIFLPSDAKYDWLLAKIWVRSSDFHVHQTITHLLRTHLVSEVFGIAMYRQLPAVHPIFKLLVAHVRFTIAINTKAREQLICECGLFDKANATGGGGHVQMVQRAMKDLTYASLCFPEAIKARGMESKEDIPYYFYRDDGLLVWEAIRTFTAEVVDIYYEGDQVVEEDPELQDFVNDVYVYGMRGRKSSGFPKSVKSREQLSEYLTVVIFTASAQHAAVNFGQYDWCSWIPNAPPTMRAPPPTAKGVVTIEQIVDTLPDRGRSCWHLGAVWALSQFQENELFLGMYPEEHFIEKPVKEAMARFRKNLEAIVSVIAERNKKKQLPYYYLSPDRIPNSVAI
Method: Human recombinant 5-LOX was expressed in Escherichia coli Bl21 (DE3) cells that were transformed with the plasmid pT3-5LO (wt 5-LOX) and purified on an adenosine triphosphate (ATP)-agarose column by affinity chromatography.[40],[41] In a first step, E. coli was lysed in 50 mM triethanolamine/HCl pH 8.0 with ethylenediamine tetraacetic acid (EDTA) (5 mM), soybean trypsin inhibitor (60 μg/mL), phenylmethanesulfonyl fluoride (1 mM), dithiothreitol (1 mM), and lysozyme (1 mg/mL) and sonicated 3 times for 15 s. The homogenate was centrifuged at 40,000g for 20 min at 4 °C. The supernatant was transferred to an ATP-agarose column (Sigma-Aldrich, Deisenhofen, Germany), which was sequentially washed with phosphate-buffered saline (PBS) pH 7.4, 1 mM EDTA, 50 mM phosphate buffer pH 7.4, 0.5 M NaCl, 1 mM EDTA, and finally 50 mM phosphate buffer pH 7.4 plus 1 mM EDTA. The enzyme was eluted with 50 mM phosphate buffer pH 7.4, 1 mM EDTA, and 20 mM ATP.
5-LOX product formation was started by the addition of 20 μM arachidonic acid (Sigma-Aldrich) and CaCl2 (2 mM) and stopped by the addition of an equal volume of ice-cold methanol containing PGB1 (200 ng) as internal standard after 10 min at 37 °C.

Row | Structure (SMILES) | UGTs/CYPs dual-activity mouse liver microsomal stability ([1]; 0.25 h, 0.5 mg mL–1 microsomes) | UGTs/CYPs dual-activity mouse liver microsomal stability ([1]; 0.5 h) | UGTs/CYPs dual-activity mouse liver microsomal stability ([1]; 1.0 h) | half-life at 5 µM [1] | microsomal CLint at 1 h, 5 µM [1] | IC50 (5-LOX) | half-life at 1 h, 5 µM [1]
1 | O=C(Nc1ccc2c(c1)CCN2Cc1ccc(F)cc1)NC12C[C@H]3C[C@@H](C1)C[C@@H](C2)C3 [Compound 6, 1-((3S,5S,7S)-Adamantan-1-yl)-3-(1-(4-fluorobenzyl)indolin-5-yl)urea] | 21.3 ± 0.9% | 10.9 ± 0.1% | 10.6 ± 0.1% | 20.4 min | 67.8 µL/min/mg | 71 ± 16 nM | 
2 | O=C(NCC12C[C@H]3C[C@@H](C1)C[C@@H](C2)C3)Nc1ccc2c(ccn2Cc2ccc(F)cc2)c1 [Compound 27, 1-(((3R,5R,7R)-Adamantan-1-yl)methyl)-3-(1-(4-fluorobenzyl)-1H-indol-5-yl)urea] | 8.4 ± 0.3% | 3.2 ± 1.0% | 2.1 ± 0.7% | 11.9 min | 117 µL/min/mg | > 1000 nM | 
3 | CC(C)c1ccc(Cn2ccc3cc(NC(=O)NCC45C[C@H]6C[C@@H](C4)C[C@@H](C5)C6)ccc32)cc1 [Compound 28, 1-(((3R,5R,7R)-Adamantan-1-yl)methyl)-3-(1-(4-isopropylbenzyl)-1H-indol-5-yl)urea] | 91.5 ± 2.2% | 69.8 ± 2.9% | 53.1 ± 2.8% |  | 22 µL/min/mg | > 1000 nM | 62.9 min
4 | O=C(NCC12C[C@H]3C[C@@H](C1)C[C@@H](C2)C3)Nc1ccc2c(ccn2CCc2ccc(F)cc2)c1 [Compound 30, 1-(((3R,5R,7R)-Adamantan-1-yl)methyl)-3-(1-(4-fluorophenethyl)-1H-indol-5-yl)urea] | 16.6 ± 1.4% | 9.3 ± 0.6% | 5.7 ± 0.2% | 16 min | 86.6 µL/min/mg | > 1000 nM | 
5 | O=C(NCC12C[C@H]3C[C@@H](C1)C[C@@H](C2)C3)Nc1ccc2c(ccn2C(=O)c2ccc(F)cc2)c1 [Compound 36, 1-(((3R,5R,7R)-Adamantan-1-yl)methyl)-3-(1-(4-fluorobenzoyl)-1H-indol-5-yl)urea] | 20.4 ± 1.8% | 11.9 ± 0.6% | 2.4 ± 0.4% |  | 118 µL/min/mg | > 1000 nM | 11.8 min
